Counter-ions that a name gives are not always drawn. Like-named read-outs stand apart in the source and are kept apart here.
Columns and labels:
[1] = tested on: Phosphorylated Ribosomal Protein S6 (RPS6); experiment: THP-1 RPS6 ELISA Assay; type: cell-based, Human; conditions: THP-1 cells, read-out: PI3Kγ_THP1_RPS6_ELISA IC50
Summary of the method: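 IC50 values come from a curve of percent inhibition against log compound concentration, using phospho-RPS6 ELISA (450 nm) on THP-1 lysates. Cells were serum-starved overnight, exposed to compound for 2 h at 37 °C, then challenged 15 min with 10 nM MCP-1.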

[2] = molecular target: PI3Kγ (p110γ) Recombinant Human Protein (Homo sapiens (Human), UniProt P48736); experiment: PI3K-γ Scintillation Proximity Assay; type: biochemical; conditions: read-out: PI3Kγ IC50
PI3Kγ (p110γ) Recombinant Human Protein, sequence (P48736 whole entry): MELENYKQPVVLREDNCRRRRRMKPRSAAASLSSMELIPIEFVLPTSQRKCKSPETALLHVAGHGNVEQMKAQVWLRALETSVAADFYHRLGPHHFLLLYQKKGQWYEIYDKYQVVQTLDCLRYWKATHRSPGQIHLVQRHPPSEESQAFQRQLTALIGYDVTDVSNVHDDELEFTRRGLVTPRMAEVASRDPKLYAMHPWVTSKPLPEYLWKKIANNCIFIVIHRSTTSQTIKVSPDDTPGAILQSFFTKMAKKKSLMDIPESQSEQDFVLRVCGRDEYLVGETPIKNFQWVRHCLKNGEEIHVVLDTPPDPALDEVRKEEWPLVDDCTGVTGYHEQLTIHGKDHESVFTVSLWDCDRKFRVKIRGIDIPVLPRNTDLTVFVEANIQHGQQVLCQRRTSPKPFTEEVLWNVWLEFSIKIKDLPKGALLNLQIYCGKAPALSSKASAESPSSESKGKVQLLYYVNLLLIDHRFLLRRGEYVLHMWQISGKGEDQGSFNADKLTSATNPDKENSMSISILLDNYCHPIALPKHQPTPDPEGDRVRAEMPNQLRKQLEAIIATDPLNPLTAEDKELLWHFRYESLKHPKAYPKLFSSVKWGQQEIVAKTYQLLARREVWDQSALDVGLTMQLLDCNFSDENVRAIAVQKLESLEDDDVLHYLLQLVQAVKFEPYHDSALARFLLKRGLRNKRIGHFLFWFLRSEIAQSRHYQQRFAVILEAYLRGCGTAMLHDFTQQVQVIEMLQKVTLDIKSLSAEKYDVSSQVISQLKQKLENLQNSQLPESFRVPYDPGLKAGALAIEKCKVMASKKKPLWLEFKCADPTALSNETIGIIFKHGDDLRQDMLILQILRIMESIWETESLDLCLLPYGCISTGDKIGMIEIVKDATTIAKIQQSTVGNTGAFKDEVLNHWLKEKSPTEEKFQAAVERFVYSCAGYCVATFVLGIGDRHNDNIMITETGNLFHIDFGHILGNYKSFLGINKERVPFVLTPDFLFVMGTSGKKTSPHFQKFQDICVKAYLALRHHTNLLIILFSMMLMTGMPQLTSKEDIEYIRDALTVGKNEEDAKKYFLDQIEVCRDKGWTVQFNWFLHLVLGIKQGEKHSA
Summary of the method: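 Radiometric SPA readout: […] bound to WGA beads after overnight shaking, IC50 derived from % activity of DMSO control. Reaction used human p110γ, 2 μM ATP, 20 μM PIP2, pH 6.7 MOPS buffer with MgCl2, DTT, CHAPS, 2% DMSO, room temperature.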

[3] = molecular target: PI3Kδ (p110δ/p85α) Recombinant Human Protein (Homo sapiens (Human), UniProt O00329); experiment: PI3Kδ Scintillation Proximity Assay; type: biochemical
PI3Kδ (p110δ/p85α) Recombinant Human Protein, sequence (O00329 whole entry): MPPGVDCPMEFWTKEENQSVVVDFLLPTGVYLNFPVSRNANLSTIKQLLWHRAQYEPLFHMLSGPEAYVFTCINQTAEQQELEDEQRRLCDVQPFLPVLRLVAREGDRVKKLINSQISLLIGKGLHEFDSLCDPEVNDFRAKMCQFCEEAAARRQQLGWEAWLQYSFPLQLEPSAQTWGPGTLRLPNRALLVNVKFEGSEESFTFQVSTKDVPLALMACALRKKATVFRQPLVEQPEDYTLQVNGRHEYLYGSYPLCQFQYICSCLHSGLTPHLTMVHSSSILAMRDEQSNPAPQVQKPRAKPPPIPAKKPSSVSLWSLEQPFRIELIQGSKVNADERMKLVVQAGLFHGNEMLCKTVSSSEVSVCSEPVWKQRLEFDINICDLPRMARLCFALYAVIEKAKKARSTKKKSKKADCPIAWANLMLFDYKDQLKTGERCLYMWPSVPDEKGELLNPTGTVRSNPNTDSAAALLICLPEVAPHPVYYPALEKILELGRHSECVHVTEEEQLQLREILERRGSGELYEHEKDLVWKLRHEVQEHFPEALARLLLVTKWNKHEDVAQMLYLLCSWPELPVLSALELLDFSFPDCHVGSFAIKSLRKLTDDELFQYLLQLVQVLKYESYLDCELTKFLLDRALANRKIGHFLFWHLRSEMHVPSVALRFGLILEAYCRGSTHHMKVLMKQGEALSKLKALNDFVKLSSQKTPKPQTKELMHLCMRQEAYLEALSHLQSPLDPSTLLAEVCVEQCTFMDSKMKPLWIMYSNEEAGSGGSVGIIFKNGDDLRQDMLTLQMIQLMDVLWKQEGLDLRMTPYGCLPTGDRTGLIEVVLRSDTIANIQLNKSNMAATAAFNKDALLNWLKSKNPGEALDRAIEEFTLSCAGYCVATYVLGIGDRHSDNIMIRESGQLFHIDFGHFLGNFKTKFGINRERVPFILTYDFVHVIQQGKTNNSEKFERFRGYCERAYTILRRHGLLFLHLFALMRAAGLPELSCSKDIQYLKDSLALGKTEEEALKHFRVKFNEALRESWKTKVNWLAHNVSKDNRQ
PI3Kδ (p110δ/p85α) Recombinant Human Protein, sequence (P27986 whole entry partner): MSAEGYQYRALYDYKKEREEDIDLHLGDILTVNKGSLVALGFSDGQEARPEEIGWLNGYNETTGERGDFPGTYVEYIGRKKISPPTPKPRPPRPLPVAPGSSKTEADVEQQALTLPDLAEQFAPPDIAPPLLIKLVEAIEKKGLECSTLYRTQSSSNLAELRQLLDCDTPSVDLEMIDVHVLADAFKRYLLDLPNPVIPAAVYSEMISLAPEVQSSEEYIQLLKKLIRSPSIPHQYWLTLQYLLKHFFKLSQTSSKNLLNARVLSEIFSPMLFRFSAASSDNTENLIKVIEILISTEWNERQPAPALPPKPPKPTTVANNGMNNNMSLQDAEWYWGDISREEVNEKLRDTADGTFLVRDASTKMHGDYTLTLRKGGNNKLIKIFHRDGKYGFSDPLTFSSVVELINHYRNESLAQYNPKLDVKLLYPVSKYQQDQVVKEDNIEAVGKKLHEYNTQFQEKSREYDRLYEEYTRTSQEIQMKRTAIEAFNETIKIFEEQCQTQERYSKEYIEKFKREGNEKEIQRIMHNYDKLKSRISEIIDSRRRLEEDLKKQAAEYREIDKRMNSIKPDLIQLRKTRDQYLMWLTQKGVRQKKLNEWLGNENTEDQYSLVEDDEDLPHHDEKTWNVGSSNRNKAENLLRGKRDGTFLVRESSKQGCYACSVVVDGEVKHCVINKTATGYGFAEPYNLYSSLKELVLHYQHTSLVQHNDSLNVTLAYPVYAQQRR
Summary of the method: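 Radiometric read-out: 33P-labelled PIP3 product captured on WGA SPA beads and counted, with IC50 fitted from percent activity relative to DMSO control. Enzyme (3.4 nM) was incubated 120 min at room temperature with 20 μM PIP2 and 2 μM ATP at pH 6.7, 2% DMSO.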

SMILES	IC50 [1] [nM]	IC50 [2] [nM]	IC50 [3] [nM]	IC50 ([1]; Homo sapiens) [nM]
Cc1ccc(S(=O)(=O)NC23CC(Cn4cncn4)(C2)C3)cc1-c1cnc2c(N)nc(C(F)(F)F)nn12 [Example 338, N-(3-((1H-1,2,4-triazol-1-yl)methyl)bicyclo[1.1.1]pentan-1-yl)-3-(4-amino-2-(trifluoromethyl)imidazo[1,2-f][1,2,4]triazin-7-yl)-4-methylbenzenesulfonamide]	100 to 500	< 100	100 to 500	
Cc1ccc(S(=O)(=O)NC23CC(C(F)F)(C2)C3)cc1-c1cnc2c(N)nc(C(F)(F)F)nn12 [Example 339, 3-(4-Amino-2-(trifluoromethyl)imidazo[1,2-f][1,2,4]triazin-7-yl)-N-(3-(difluoromethyl)bicyclo[1.1.1]pentan-1-yl)-4-methylbenzenesulfonamide trifluoroacetate salt]	100 to 500	< 100	100 to 500	
Cc1ccc(S(=O)(=O)NC23CC(N4CCOCC4)(C2)C3)cc1-c1cnc2c(N)nc(C(F)(F)F)nn12 [Example 340, 3-(4-Amino-2-(trifluoromethyl)imidazo[1,2-f][1,2,4]triazin-7-yl)-4-methyl-N-(3-morpholinobicyclo[1.1.1]pentan-1-yl)benzenesulfonamide trifluoroacetate salt]	100 to 500	< 100	100 to 500	
Cc1ccc(S(=O)(=O)NC23CC(N)(C2)C3)cc1-c1cnc2c(N)nc(C(F)(F)F)nn12 [Example 341, 3-(4-Amino-2-(trifluoromethyl)imidazo[1,2-f][1,2,4]triazin-7-yl)-N-(3-aminobicyclo[1.1.1]pentan-1-yl)-4-methylbenzenesulfonamide trifluoroacetate salt]	100 to 500	< 100	100 to 500	
Cc1ccc(S(=O)(=O)N2CC(O)(C3CC3)C2)cc1-c1cnc2c(N)nc(C(F)(F)F)nn12 [Example 342, 1-((3-(4-amino-2-(trifluoromethyl)imidazo[2,1-1,2,4]triazin-7-yl)-4-methylphenyl)sulfonyl)-3-cyclopropylazetidin-3-ol TFA]	100 to 500	< 100	100 to 500	
Cc1ccc(S(=O)(=O)N2CC3(CC(O)C3)C2)cc1-c1cnc2c(N)nc(C(F)(F)F)nn12 [Example 343, 2-((3-(4-amino-2-(trifluoromethyl)imidazo[2,1-f][1,2,4]triazin-7-yl)-4-methylphenyl)sulfonyl)-2-azaspiro[3.3]heptan-6-ol TFA]		< 100	< 100	< 100
Cc1ccc(S(=O)(=O)N(C)CCC#N)cc1-c1cnc2c(N)nc(C(F)(F)F)nn12 [Example 344, 3-(4-amino-2-(trifluoromethyl)imidazo[2,1-f][1,2,4]triazin-7-yl)-N-(2-cyanoethyl)-N,4-dimethylbenzenesulfonamide]		< 100	< 100	100 to 500
Cc1ccc(S(=O)(=O)N(CCC#N)C2CC2)cc1-c1cnc2c(N)nc(C(F)(F)F)nn12 [Example 345, 3-(4-amino-2-(trifluoromethyl)imidazo[2,1-f][1,2,4]triazin-7-yl)-N-(2-cyanoethyl)-N-cyclopropyl-4-methylbenzenesulfonamide]		< 100	100 to 500	> 1000
Cc1ccc(S(=O)(=O)N(CCC#N)C2CCCC2)cc1-c1cnc2c(N)nc(C(F)(F)F)nn12 [Example 346, 3-(4-amino-2-(trifluoromethyl)imidazo[2,1-f][1,2,4]triazin-7-yl)-N-(2-cyanoethyl)-N-cyclopentyl-4-methylbenzenesulfonamide]		< 100	100 to 500	100 to 500
C[C@]1(O)CC[C@H](NS(=O)(=O)c2cc(-c3cnc4c(N)nccn34)ccc2F)CC1 [Example 359, 5-(8-aminoimidazo[1,2-a]pyrazin-3-yl)-2-fluoro-N-((1r,4r)-4-hydroxy-4-methylcyclohexyl)benzenesulfonamide]	> 1000	< 100	100 to 500	
N#CC12CCC(NS(=O)(=O)c3cccc(-c4cnc5c(N)ncnn45)c3)(C1)C2 [Example 364, 3-(4-Aminoimidazo[1,2-f][1,2,4]triazin-7-yl)-N-(4-cyanobicyclo[2.1.1]hexan-1-yl)benzenesulfonamide trifluoroacetate salt]	< 100	< 100	100 to 500	
Nc1ncnn2c(-c3ccc(Cl)c(S(=O)(=O)NC45CCC(CO)(C4)C5)c3)cnc12 [Example 367, 5-(4-Aminoimidazo[1,2-f][1,2,4]triazin-7-yl)-2-chloro-N-(4-(hydroxymethyl)bicyclo[2.1.1]hexan-1-yl)benzenesulfonamide trifluoroacetate salt]	> 1000	< 100	100 to 500	
[2H]C([2H])([2H])c1ccc(S(=O)(=O)NC23CC(CC#N)(C2)C3)cc1-c1cnc2c(N)ncnn12 [Example 371, trifluoroacetate salt]		< 100	100 to 500	100 to 500

Next, values leading:

IC50 [1] [nM]	IC50 [2] [nM]	IC50 [3] [nM]	IC50 ([1]; Homo sapiens) [nM]	SMILES
	< 100	100 to 500	< 100	Cc1ccc(S(=O)(=O)N2CCC[C@H]2CO)cc1-c1cnc2c(N)nc(C(F)(F)F)nn12 [Example 347, (S)-(1-((3-(4-amino-2-(trifluoromethyl)imidazo[2,1-f][1,2,4]triazin-7-yl)-4-methylphenyl)sulfonyl)pyrrolidin-2-yl)methanol]
	< 100	< 100	100 to 500	Cc1ccc(S(=O)(=O)N2CC3(CCN(C)C3=O)C2)cc1-c1cnc2c(N)nc(C(F)(F)F)nn12 [Example 348, 2-((3-(4-amino-2-(trifluoromethyl)imidazo[2,1-f][1,2,4]triazin-7-yl)-4-methylphenyl)sulfonyl)-6-methyl-2,6-diazaspiro[3.4]octan-5-one]
	< 100	500 to 2000	> 1000	Cc1ccc(S(=O)(=O)N2CC3C(O)C2CN3C2CCCC2C#N)cc1-c1cnc2c(N)nc(C(F)(F)F)nn12 (stereo not drawn) [Example 353, 2-(5-((3-(4-amino-2-(trifluoromethyl)imidazo[2,1-f][1,2,4]triazin-7-yl)-4-methylphenyl)sulfonyl)-7-hydroxy-2,5-diazabicyclo[2.2.1]heptan-2-yl)cyclopentane-1-carbonitrile]
	< 100	500 to 2000	> 1000	Cc1ccc(S(=O)(=O)N2CC3C(O)C2CN3C2CC(C#N)C2)cc1-c1cnc2c(N)nc(C(F)(F)F)nn12 (stereo not drawn) [Example 354, 3-(5-((3-(4-amino-2-(trifluoromethyl)imidazo[2,1-f][1,2,4]triazin-7-yl)-4-methylphenyl)sulfonyl)-7-hydroxy-2,5-diazabicyclo[2.2.1]heptan-2-yl)cyclobutane-1-carbonitrile]
	< 100	100 to 500	100 to 500	Cc1ccc(S(=O)(=O)N2CC3NCC2C3O)cc1-c1cnc2c(N)nc(C(F)(F)F)nn12 (stereo not drawn) [Example 355, 2-((3-(4-amino-2-(trifluoromethyl)imidazo[2,1-f][1,2,4]triazin-7-yl)-4-methylphenyl)sulfonyl)-2,5-diazabicyclo[2.2.1]heptan-7-ol]
	< 100	100 to 500	< 100	Cc1ccc(S(=O)(=O)N[C@H]2CC[C@H](CO)OC2)cc1-c1cnc2c(N)nc(C(F)(F)F)nn12 [Example 356, 3-(4-amino-2-(trifluoromethyl)imidazo[2,1-f][1,2,4]triazin-7-yl)-N-((3S,6R)-6-(hydroxymethyl)tetrahydro-2H-pyran-3-yl)-4-methylbenzenesulfonamide]
	100 to 500	100 to 500	> 1000	Nc1nccn2c(-c3ccc(F)c(S(=O)(=O)NCC4(CO)CCOCC4)c3)cnc12 [Example 360, 5-(8-aminoimidazo[1,2-a]pyrazin-3-yl)-2-fluoro-N-((4-(hydroxymethyl)tetrahydro-2H-pyran-4-yl)methyl)benzenesulfonamide]
	< 100	100 to 500	< 100	O=C(O)C(F)(F)F.[2H]C([2H])([2H])c1ccc(S(=O)(=O)NC23CCC(C#N)(CC2)C3)cc1-c1cnc2c(N)ncnn12 [Example 362, 3-(4-Aminoimidazo[2,1-f][1,2,4]triazin-7-yl)-N-(4-cyanobicyclo[2.2.1]heptan-1-yl)-4-(methyl-d3)benzenesulfonamide trifluoroacetate salt]
100 to 500	< 100	500 to 2000		Cc1cc(C)c(S(=O)(=O)NC23CCC(CO)(C2)C3)cc1-c1cnc2c(N)ncnn12 [Example 363, 5-(4-Aminoimidazo[1,2-f][1,2,4]triazin-7-yl)-N-(4-(hydroxymethyl)bicyclo[2.1.1]hexan-1-yl)-2,4-dimethylbenzenesulfonamide]
100 to 500	< 100	100 to 500		N#CC12CCC(NS(=O)(=O)c3cc(-c4cnc5c(N)ncnn45)ccc3F)(C1)C2 [Example 365, 5-(4-Aminoimidazo[1,2-f][1,2,4]triazin-7-yl)-N-(4-cyanobicyclo[2.1.1]hexan-1-yl)-2-fluorobenzenesulfonamide trifluoroacetate salt]
